Laboratory results: US4103008A, “7[2(2,3 Dioxopiperazin-1-yl-carbonylamino)substituted 2 phenylacetamido]-3-2'-thiadiazolyl cephalosporanic acid derivatives” (priority 1976, dated 1978)
In brackets after ≈: the same amount, converted by molar mass. Like-named read-outs stand apart in the source and are kept apart here.

Legend:
[1] = tested on: Pseudomonas strain C73-83; experiment: In vitro antibacterial activity (MIC); format: cell-based; details: C7383
Source text: (§1) Given below are the test results of in vitro antibacterial activity studies, serum concentrations and accumulative urinary excretions in rabbits and the protecting effects in mice, of some representative compounds of the invention.
(§2) The compounds used in the tests are shown in the following Table 1, but all of these compounds are in the form of the sodium salt.

Salmonella strain C73-1 = experiment: In vitro antibacterial activity (MIC); format: cell-based; details: C731
Source text: as §1, §2

[2] = tested on: Salmonella strain C 73-30; experiment: In vitro antibacterial activity (MIC); format: cell-based; details: C7330
Source text: as §1, §2

[3] = tested on: Salmonella enteritidis No. 11; experiment: In vitro antibacterial activity (MIC); format: cell-based; details: Salmonella enterica
[4] = tested on: Enterobacter strain C73-17; experiment: In vitro antibacterial activity (MIC); format: cell-based; details: C7317
[5] = tested on: Vibrio parahaemolyticus K - 3; experiment: In vitro antibacterial activity (MIC); format: cell-based; details: K3
Serratia strain No. 1 = experiment: In vitro antibacterial activity (MIC); format: cell-based
Serratia strain No. 2 = experiment: In vitro antibacterial activity (MIC); format: cell-based
Escherichia coli C 73-1 = experiment: In vitro antibacterial activity (MIC); format: cell-based; details: C731
Klebsilla pneumoniae = experiment: In vitro antibacterial activity (MIC); format: cell-based
[6] = tested on: Shigella dysenteriae shigae; experiment: microbe, parasite or virus in culture; format: cell-based
Proteus morganii kono = experiment: In vitro antibacterial activity (MIC); format: cell-based; details: Morganella morganii
[7] = tested on: Bacillus substilis ATCC 6633; experiment: In vitro antibacterial activity (MIC); format: cell-based; details: ATCC6633
[8] = tested on: Staphylococcus aureus FDA 209NIH, P-J C-1; experiment: In vitro antibacterial activity (MIC); format: cell-based
[9] = tested on: Pseudomonas aeruginosa C73-2; experiment: In vitro antibacterial activity (MIC); format: cell-based; details: C732
[10] = tested on: Pseudomonas aerugenosa E 2 strain; experiment: ED50 in Pseudomonas infection in mice; format: in vivo; details: ICR-JCL mouse, male, 20g; P. aerugenosa E 2 3.6 × 10^4 intraperitoneal; compound intramuscular after 2 hrs.; ED50 after 7 days; sodium salts
Source text: as §1, §2
Pseudomonas aerugenosa E 2 strain (3.6 × 10^4) was intraperitonealy injected to each group of 10 of ICR-JCL mouse (male, 20g). After 2 hrs., each of the test compounds was intramuscularly administered to the infected mice and the ED50 values were measured after 7 days.

Proteus morganii C73-23 = experiment: In vitro antibacterial activity (MIC); format: cell-based; details: Morganella morganii, C7323
[11] = tested on: Streptococcus faecalis ATCC 8043; experiment: In vitro antibacterial activity (MIC); format: cell-based; details: Enterococcus faecalis, ATCC8043
[12] = tested on: Pseudomonas strain C73-63; experiment: In vitro antibacterial activity (MIC); format: cell-based; details: C7363
[13] = Serum concentration and accumulative urinary excretion in rabbit; details: in vivo, im, 20 mg/kg intramuscular, sodium salts, Sarcina lutea assay
Description: as §1, §2
Each of the test compounds (20 mg/kg) was intramuscularly administered to one group of 3 rabbits, and the amounts of antibiotics were measured by a conventional method, using Sarcina lutea.

Escherichia coli C 73-4 = experiment: In vitro antibacterial activity (MIC); format: cell-based; details: C734
[14] = tested on: Vibrio parahaemolyticus K - 5; experiment: In vitro antibacterial activity (MIC); format: cell-based; details: K5
[15] = Pseudomonas aeruginosa C-73-2, read-out: Mic value against Pseudomonas aeruginosa C-73-2
[16] = Pseudomonas strain C73-83, in vitro, sodium salts, read-out: MIC
[17] = Salmonella strain C73-1, in vitro, sodium salts, read-out: MIC
[18] = Salmonella strain C 73-30, in vitro, sodium salts, read-out: MIC
[19] = Salmonella enteritidis No. 11, in vitro, sodium salts, read-out: MIC
[20] = Vibrio parahaemolyticus K - 3, in vitro, sodium salts, read-out: MIC
[21] = Proteus morganii kono, in vitro, sodium salts, read-out: MIC
[22] = Bacillus substilis ATCC 6633, in vitro, sodium salts, read-out: MIC
[23] = Staphylococcus aureus FDA 209NIH, P-J C-1, in vitro, sodium salts, read-out: MIC
[24] = Streptococcus faecalis ATCC 8043, in vitro, sodium salts, read-out: MIC
[25] = Vibrio parahaemolyticus K - 5, in vitro, sodium salts, read-out: MIC
[26] = Enterobacter strain C73-17, in vitro, sodium salts, read-out: MIC
[27] = Pseudomonas aeruginosa C73-2, in vitro, sodium salts, read-out: MIC
[28] = Proteus morganii C73-23, in vitro, sodium salts, read-out: MIC
[29] = Pseudomonas strain C73-63, in vitro, sodium salts, read-out: MIC

Row | SMILES | MIC ([4]; Enterobacter) | MIC ([5]; Vibrio parahaemolyticus) | MIC (Serratia strain No. 1; Serratia, NO.1) | MIC (Serratia strain No. 2; Serratia, NO.2) | MIC (Escherichia coli C 73-1; Escherichia coli) | MIC (Klebsilla pneumoniae) | MIC [6] | MIC ([9]; Pseudomonas aeruginosa) | MIC (Proteus morganii C73-23) | MIC [11] | MIC ([12]; Pseudomonas) | MIC (Escherichia coli C 73-4; Escherichia coli) | MIC [1, 16] | MIC (Salmonella strain C73-1; [17]) | MIC [2, 18] | MIC [3, 19] | MIC (Proteus morganii kono; [21]) | MIC [7, 22] | MIC [8, 23] | MIC [14, 25] | also measured
1 | CCN1CCN(C(=O)N[C@@H](C(=O)NC2C(=O)N3C(C(=O)[O-])=C(CSc4nncs4)CS[C@H]23)c2ccc(O)cc2)C(=O)C1=O.[Na+] (single isomer, unassigned) | 25 µg/mL | 6.25 µg/mL | 3.13 µg/mL | 3.13 µg/mL | 1.56 µg/mL | 0.1 µg/mL | < 0.05 µg/mL | 6.25 µg/mL | 6.25 µg/mL | 0.78 µg/mL | 1.56 µg/mL | 0.39 µg/mL |  |  |  |  |  |  |  |  | MIC ([1]; Pseudomonas): 25 µg/mL; MIC (Salmonella strain C73-1; Salmonella): 0.39 µg/mL; MIC ([2]; Salmonella): 0.39 µg/mL; MIC ([3]; ENTERITIDIS): < 0.05 µg/mL; MIC (Proteus morganii kono): 1.56 µg/mL; MIC ([7]; Bacillus): 0.78 µg/mL; MIC ([8]; Staphylococcus aureus): 0.39 µg/mL; ED50 in Pseudomonas infection in mice [10]: 3.0 mg/mouse; concentration at 0.5 h ([13]; after 30 mins.): 52.8 µg/mL; dose excreted at 6 h ([13]; after 6 hrs., read-out: ACCUMULATIVE URINARY EXCRETION): 33.4%; MIC ([14]; Vibrio parahaemolyticus): 6.25 µg/mL
2 | CCN1CCN(C(=O)N[C@@H](C(=O)NC2C(=O)N3C(C(=O)O)=C(CSc4nnc(C)s4)CSC23)c2ccc(O)c(Cl)c2)C(=O)C1=O (single isomer, unassigned) [Example 7] |  |  |  |  |  |  |  |  |  |  |  |  |  |  |  |  |  |  |  |  | MIC [9, 15]: 12.5 µg/mL (≈ 18 µM)
3 | CCN1CCN(C(=O)N[C@@H](C(=O)NC2C(=O)N3C(C(=O)O)=C(CSc4nnc(C)s4)CS[C@H]23)c2ccc(O)cc2)C(=O)C1=O (single isomer, unassigned) [Example 8, 7-[D(-)-α-(4-ethyl-2,3-dioxopiperazin-1-yl-carbonylamino)-p-hydroxyphenylacetamido]-3-(5-methyl-1,3,4-thiadiazol-2-yl-thiomethyl)-3-cephem-4-carboxylic acid] |  |  |  |  |  |  |  |  |  |  |  |  |  |  |  |  |  |  |  |  | MIC [9, 15]: 25 µg/mL (≈ 37.8 µM)
4 | CCN1CCN(C(=O)N[C@@H](C(=O)N[C@@H]2C(=O)N3[C@@H]2SC(C)(C)[C@@H]3C(=O)O)c2ccccc2)C(=O)C1=O [C, sodium 6-[D(-)-α-(4-ethyl-2,3-dioxopiperazin-1-yl-carbonylamino)phenylacetamido]penicillanate, reference compound] | 6.25 µg/mL |  | 3.13 µg/mL | 3.13 µg/mL | 3.13 µg/mL | 3.13 µg/mL | 0.2 µg/mL | 6.25 µg/mL | 3.13 µg/mL |  | 3.13 µg/mL | 6.25 µg/mL | 50 µg/mL | 6.25 µg/mL | 6.25 µg/mL | < 0.05 µg/mL | 0.78 µg/mL | 0.39 µg/mL | 0.78 µg/mL | 12.5 µg/mL | MIC [5, 20]: 25 µg/mL; MIC [11, 24]: 12.5 µg/mL
5 | CC1(C)S[C@@H]2[C@H](NC(=O)C(C(=O)O)c3ccccc3)C(=O)N2[C@H]1C(=O)O (stereo partly shown) [CB-PC, sodium carbenicillin, reference compound] |  |  | 3.13 µg/mL | 3.13 µg/mL |  | 6.25 µg/mL | 0.78 µg/mL |  |  | 6.25 µg/mL | 12.5 µg/mL | 6.25 µg/mL | > 100 µg/mL | 6.25 µg/mL | 6.25 µg/mL | 0.39 µg/mL | 0.39 µg/mL | < 0.05 µg/mL | 0.2 µg/mL | > 100 µg/mL | MIC [4, 26]: 25 µg/mL; MIC [5, 20]: > 100 µg/mL; MIC (Escherichia coli C 73-1; Escherichia coli C 73-1, in vitro, sodium salts, read-out: MIC): > 100 µg/mL; MIC [9, 27]: 25 µg/mL; ED50 in Pseudomonas infection in mice [10]: 8.1 mg/mouse; MIC (Proteus morganii C73-23; [28]): 1.56 µg/mL
6 | CC1=C(C(=O)O)N2C(=O)[C@@H](NC(=O)[C@H](N)c3ccccc3)[C@H]2SC1 [CEX, sodium cephalexin, reference compound] | 100 µg/mL | 6.25 µg/mL | > 100 µg/mL | > 100 µg/mL | 25 µg/mL | 3.13 µg/mL | 1.56 µg/mL | > 100 µg/mL | > 100 µg/mL | 50 µg/mL |  | 6.25 µg/mL | > 100 µg/mL | 3.13 µg/mL | 3.13 µg/mL |  |  |  |  |  | MIC ([3]; ENTERITIDIS): 3.13 µg/mL; MIC (Proteus morganii kono): > 100 µg/mL; MIC ([7]; Bacillus): 0.39 µg/mL; MIC ([8]; Staphylococcus aureus): 0.78 µg/mL; MIC [12, 29]: > 100 µg/mL; MIC ([14]; Vibrio parahaemolyticus): 50 µg/mL
7 | Cc1nnc(SCC2=C(C(=O)O)N3C(=O)[C@@H](NC(=O)Cn4cnnn4)[C@H]3SC2)s1 [CEZ, sodium cefazolin, reference compound] |  | 1.56 µg/mL |  |  | 3.13 µg/mL |  | 0.78 µg/mL |  |  |  |  |  | > 100 µg/mL | 0.78 µg/mL | 0.78 µg/mL | 0.78 µg/mL | > 100 µg/mL | < 0.05 µg/mL | < 0.05 µg/mL | 12.5 µg/mL | MIC [4, 26]: 25 µg/mL; MIC (Serratia strain No. 1; Serratia strain No. 1, in vitro, sodium salts, read-out: MIC): > 100 µg/mL; MIC (Serratia strain No. 2; Serratia strain No. 2, in vitro, sodium salts, read-out: MIC): > 100 µg/mL; MIC (Klebsilla pneumoniae; Klebsilla pneumoniae, in vitro, sodium salts, read-out: MIC): 0.78 µg/mL; MIC [9, 27]: > 100 µg/mL; MIC (Proteus morganii C73-23; [28]): > 100 µg/mL; MIC [11, 24]: 2.5 µg/mL; MIC [12, 29]: > 100 µg/mL; MIC (Escherichia coli C 73-4; Escherichia coli C 73-4, in vitro, sodium salts, read-out: MIC): 0.78 µg/mL
